Reference: patent US20230137849A1, “USE OF A COMPOUND OF THE DIURETICS CLASS FOR TREATING CANCER” (AZELEAD, priority 2017, published 2023)
Like-named read-outs stand apart in the source and are kept apart here.

Columns and labels:
[1] = tested on: hematopoietic stem cells CD41:GFP accumulated in the CHT; assay type: in vivo; settings: for reduction of the number of HSCs accumulated in CHT: 10 μM (FIG. 3; b188 prints 10 μl), 24 h, vs reference embryos treated with DMSO; for efficiency on number of cells migrated to CHT: 24 hours, FIG. 6
Text: A method for determining whether a molecule is capable of treating cancer in the pre-metastatic state has been described in international application WO 2011/007259. This method consists in isolating molecules capable of inhibiting the emergence of hematopoietic stem cells from the floor of the aorta without cell division, but by endothelial-to-hematopoietic transition. This emergence involves the loss of cell polarity of emerging cells, the loss of cellular junctions with these neighboring cells and the acquisition of migratory properties. This model is used because it mimics each stage of the epithelial-mesenchymal transition, the first stage of cancer metastasis. The endothelial-to-hematopoietic transition takes place in a region of the embryo called Aorta-Gonad-Mesonephros (AGM).
(§1) The colonization of hematopoietic tissues by hematopoietic stem cells mimics the appearance and/or progression of a metastatic cancerous tumor since it involves intravasation, extravasation, or the migration of HSCs following a gradient of SDF-1. The first colonized tissue is caudal hematopoietic tissue (CHT).
In order to evaluate the inhibition of the endothelial-to-hematopoietic transition, transgenic CD41:GFP (green fluorescent protein) embryos are used. HSCs express GFP under the control of the CD41 promoter, which allows them to be monitored in vivo under a fluorescence microscope. The read-out is the number of hematopoietic stem cells CD41:GFP accumulated in the AGM (mimicking the initiation of the metastatic process) and/or in the CHT of the zebrafish embryo (mimicking the progression of the metastatic process). The accumulation of CD41:GFP cells in CHT implies that each cell has made an endothelial-to-hematopoietic transition, intravasation, extravasation at the CHT level, has settled in a stromal niche and has proliferated.
The Tg transgenic zebrafish line (CD41:GFP) is maintained in accordance with the protocols described by the Ethical Committee for Animal Experimentation. The fish are kept at a temperature of 28° C. and their development stage is determined as before. The molecules are tested on zebrafish embryos at the 25 hpf stage. The embryos are decorticated and transferred to a 96-well plate (1 embryo/well) containing the test compounds in a final volume of 100 μl of the embryonic growth medium (60 μg salt for 1 ml H2O). […] The treated embryos are incubated for 24 hours in an incubator at 28° C.
The embryos are imaged with a plate reader after being anesthetized with 0.16% tricaine (ethyl-3-aminobenzoate). A quantification of the number of fluorescent cells (CD41:GFP) accumulated in the CHT is carried out.
Althiazide was tested on the zebrafish embryo according to the method previously described in the international application WO 2011/007259. This method consists in isolating molecules capable of inhibiting the emergence of hematopoietic stem cells from the floor of the aorta without cell division, but by endothelial-to-hematopoietic transition. This emergence involves the loss of cell polarity of emerging cells, the loss of cellular junctions with these neighboring cells and the acquisition of migratory properties. This model is used, in the context of the invention, because it mimics each of the stages of the epithelial-to-mesenchymal transition, the first stage of the cancerous metastasis. The endothelial-to-hematopoietic transition takes place in a region of the embryo called Aorto-Gonado-Mesonephros (AGM).
as §1, with “metastatic” for “metastatic cancerous”, “SDF1.” for “SDF-1.”, “(CHT). This physiological process is considered, in the context of the invention, as representative of the appearance and/or progression of a metastatic tumor. […]” for “(CHT).”

zebrafish embryo = settings: in vivo, 24 h, 1 mM
Procedure: The toxicity study is carried out over 72 hours. The embryos are treated at 25 hpf with the doses used for the test of chemical compounds of each of the compounds, in a 96-well plate, in a final volume of 100 μl of the embryonic growth medium. The embryos are incubated 72 h at 28° C. The medium is changed every 24 hours. The survival rate of embryos and the appearance of developmental defects are analyzed daily.
At the same time, we analyzed the toxicity of althiazide after balancing with a solution containing althiazide at concentrations of 1 μM, 10 μM, 100 μM, 1000 μM for 24, 48 and 72 hours. The toxicity study was based on analysis of the percentage viability of the embryos after treatment. At concentrations of 1 μM, 10 μM and 100 μM, althiazide causes no toxicity even after 72 hours of treatment. A 50% toxicity is observed after treatment for 24 hours, the althiazide at the concentration of 1 mM.

SNAIL = experiment: q-RT-PCR expression of EMT markers in MDA-MB-231 cells under hypoxia: SNAIL; assay type: cell-based, human; settings: althiazide 100 μM, hypoxic conditions (1% O2), vs control, FIG. 11
Procedure: The cell cultures are carried out on human breast cancer epithelial cell lines MDA-MB-231 (HTB-26™), resulting from metastases present in a pleural effusion of a patient with a mammary adenocarcinoma. This line is used as a triple negative cancer cell model (no expression of ER-type nuclear estrogen receptors, nuclear progesterone receptors or overexpression of the oncogene encoding HER2 protein (Human Epidermal Growth factor Receptor-2).
The cells were cultured in DMEM medium (Eurobio, Fance) supplemented with 10% fetal calf serum (FCS) (Eurobio, Fance) at 37° C., 5% CO2. The medium was changed every 3 days.
The cells were placed in a controlled atmosphere at 1% oxygen 24 hours before the application of the different treatments.
The expression of the mRNAs is measured by the q-RT-PCR method. The cells were seeded at the density of 500,000 cells/well in 6-well plates. After 24 hours at 37° C., 5% CO2 and 1% O2, the medium was renewed and added the various treatments. RNA was isolated using TRI Reagent® (sigma), assayed and retro-transcribed into complementary DNA using the PrimeScript RT Reagent Kit (Takara). The expression levels of the mRNA of the genes of interest were determined by quantitative PCR (LightCycler® 480 Instrument II) with the primers listed in Table 2: […]
The results are calculated using the Delta Delta Ct (Δ ΔCt) method.

C=CCSCC1Nc2cc(Cl)c(S(N)(=O)=O)cc2S(=O)(=O)N1 (racemic) [althiazide]
reduction of the number of HSCs accumulated in CHT [1]: 41% | reduction of the number of HSCs accumulated in CHT ([1]; listed as Althiazide): most effective chemical compound | anti-migratory effect (HSCs accumulated in CHT) compared with dasatinib ([1]; 10 μM both, control DMSO 1%, FIG. 5): as effective as dasatinib | decrease in the number of cells that colonized/migrated in CHT, second test ([1]; 10 μM, larger number of embryos (n=64 and n=74), FIG. 4): 36.2% | efficiency on number of cells migrated to CHT ([1]; althiazide 1 μM): no effect | efficiency on number of cells migrated to CHT ([1]; althiazide 10 μM): 50% | efficiency on number of cells migrated to CHT ([1]; althiazide 100 μM): 100% | invasion of CHT by CD41:GFP cells / number of cells having colonized CHT, in words ([1]; thiazide compounds test, 10 μM or 25 μM, FIG. 9): most effective chemical compound | reduction of migration (cells having colonized CHT) ([1]; thiazide compounds test, FIG. 9, concentration not stated (tested at 10 and 25 μM)): 30% | toxic effects in the dose effect test ([1]; zebrafish, in vivo): appearance of toxic effects | toxicity (percentage viability of the embryos) (zebrafish embryo): 50% | change in expression of SNAIL (SNAIL): −19%
